According to the NIST ThermoML archive (doi:10.1021/acs.jced.8b00591):
± gives the expanded uncertainty stated by the source.

Assay: xn = mol fraction of the nth substance listed
Conditions: 101.3 kPa, Liquid; for viscosity: Falling or rolling sphere viscometry; for mass density: Vibrating tube method

CCn1cc[n+](C)c1.O=S(=O)([N-]S(=O)(=O)C(F)(F)F)C(F)(F)F + CCOC(=O)OCC
Conditions	mass density [kg/m3]	viscosity [mPa·s]
288.15 K, x1 = 0.0991	1090.45 ± 2.7	1.938 ± 0.043
288.15 K, x1 = 0.1982	1179.3 ± 2.9	3.368 ± 0.075
288.15 K, x1 = 0.3024	1254.64 ± 3	5.628 ± 0.12
288.15 K, x1 = 0.3979	1312.21 ± 3.2	8.533 ± 0.19
288.15 K, x1 = 0.4982	1362.22 ± 3.3	12.38 ± 0.27
288.15 K, x1 = 0.5963	1404.91 ± 3.4	17.23 ± 0.38
288.15 K, x1 = 0.6992	1442.62 ± 3.5	24.14 ± 0.53
288.15 K, x1 = 0.7987	1475.05 ± 3.6	31.13 ± 0.69
288.15 K, x1 = 0.9	1503.75 ± 3.7	39.07 ± 0.87
288.15 K, x1 = 1	1528.55 ± 3.7	49.41 ± 1.1
293.15 K, x1 = 0.0991	1085.01 ± 2.6	1.769 ± 0.039
293.15 K, x1 = 0.1982	1173.95 ± 2.9	3.032 ± 0.067
293.15 K, x1 = 0.3024	1249.39 ± 3	4.987 ± 0.11
293.15 K, x1 = 0.3979	1306.99 ± 3.2	7.45 ± 0.16
293.15 K, x1 = 0.4982	1357.04 ± 3.3	10.66 ± 0.23
293.15 K, x1 = 0.5963	1399.78 ± 3.4	14.65 ± 0.32
293.15 K, x1 = 0.6992	1437.5 ± 3.5	20.32 ± 0.45
293.15 K, x1 = 0.7987	1469.95 ± 3.6	25.96 ± 0.57
293.15 K, x1 = 0.9	1498.66 ± 3.6	32.29 ± 0.71
293.15 K, x1 = 1	1523.47 ± 3.7	40.36 ± 0.89
298.15 K, x1 = 0.0991	1079.54 ± 2.6	1.623 ± 0.036
298.15 K, x1 = 0.1982	1168.6 ± 2.9	2.746 ± 0.06
298.15 K, x1 = 0.3024	1244.11 ± 3	4.452 ± 0.098
298.15 K, x1 = 0.3979	1301.78 ± 3.2	6.552 ± 0.14
298.15 K, x1 = 0.4982	1351.87 ± 3.3	9.269 ± 0.2
298.15 K, x1 = 0.5963	1394.64 ± 3.4	12.59 ± 0.28
298.15 K, x1 = 0.6992	1432.38 ± 3.5	17.65 ± 0.39
298.15 K, x1 = 0.7987	1464.86 ± 3.6	21.91 ± 0.48
298.15 K, x1 = 0.9	1493.58 ± 3.6	27.04 ± 0.6
298.15 K, x1 = 1	1518.39 ± 3.7	33.52 ± 0.74
303.15 K, x1 = 0.0991	1074.07 ± 2.6	1.495 ± 0.033
303.15 K, x1 = 0.1982	1163.23 ± 2.8	2.498 ± 0.055
303.15 K, x1 = 0.3024	1238.83 ± 3	3.992 ± 0.088
303.15 K, x1 = 0.3979	1296.56 ± 3.1	5.819 ± 0.13
303.15 K, x1 = 0.4982	1346.7 ± 3.3	8.127 ± 0.18
303.15 K, x1 = 0.5963	1389.51 ± 3.4	10.93 ± 0.24
303.15 K, x1 = 0.6992	1427.28 ± 3.5	15.41 ± 0.34
303.15 K, x1 = 0.7987	1459.77 ± 3.5	18.79 ± 0.41
303.15 K, x1 = 0.9	1488.51 ± 3.6	22.93 ± 0.51
303.15 K, x1 = 1	1513.34 ± 3.7	28.35 ± 0.62
308.15 K, x1 = 0.0991	1068.56 ± 2.6	1.389 ± 0.031
308.15 K, x1 = 0.1982	1157.86 ± 2.8	2.288 ± 0.05
308.15 K, x1 = 0.3024	1233.56 ± 3	3.607 ± 0.079
308.15 K, x1 = 0.3979	1291.36 ± 3.1	5.196 ± 0.11
308.15 K, x1 = 0.4982	1341.55 ± 3.3	7.192 ± 0.16
308.15 K, x1 = 0.5963	1384.4 ± 3.4	9.572 ± 0.21
308.15 K, x1 = 0.6992	1422.19 ± 3.5	13.37 ± 0.29
308.15 K, x1 = 0.7987	1454.71 ± 3.5	16.59 ± 0.36
308.15 K, x1 = 0.9	1483.46 ± 3.6	19.65 ± 0.43
308.15 K, x1 = 1	1508.3 ± 3.7	24.15 ± 0.53
313.15 K, x1 = 0.0991	1063.05 ± 2.6	1.29 ± 0.028
313.15 K, x1 = 0.1982	1152.48 ± 2.8	2.102 ± 0.046
313.15 K, x1 = 0.3024	1228.28 ± 3	3.278 ± 0.072
313.15 K, x1 = 0.3979	1286.15 ± 3.1	4.672 ± 0.1
313.15 K, x1 = 0.4982	1336.41 ± 3.2	6.41 ± 0.14
313.15 K, x1 = 0.5963	1379.3 ± 3.4	8.445 ± 0.19
313.15 K, x1 = 0.6992	1417.12 ± 3.5	11.6 ± 0.26
313.15 K, x1 = 0.7987	1449.66 ± 3.5	14.56 ± 0.32
313.15 K, x1 = 0.9	1478.42 ± 3.6	17.36 ± 0.38
313.15 K, x1 = 1	1503.28 ± 3.7	20.76 ± 0.46
318.15 K, x1 = 0.0991	1057.53 ± 2.6	1.204 ± 0.026
318.15 K, x1 = 0.1982	1147.11 ± 2.8	1.939 ± 0.043
318.15 K, x1 = 0.3024	1223.01 ± 3	2.993 ± 0.066
318.15 K, x1 = 0.3979	1280.95 ± 3.1	4.223 ± 0.093
318.15 K, x1 = 0.4982	1331.27 ± 3.2	5.749 ± 0.13
318.15 K, x1 = 0.5963	1374.2 ± 3.3	7.525 ± 0.17
318.15 K, x1 = 0.6992	1412.06 ± 3.4	10.14 ± 0.22
318.15 K, x1 = 0.7987	1444.62 ± 3.5	12.72 ± 0.28
318.15 K, x1 = 0.9	1473.41 ± 3.6	15.35 ± 0.34
318.15 K, x1 = 1	1498.27 ± 3.6	17.9 ± 0.39
323.15 K, x1 = 0.0991	1051.98 ± 2.6	1.121 ± 0.025
323.15 K, x1 = 0.1982	1141.72 ± 2.8	1.794 ± 0.039
323.15 K, x1 = 0.3024	1217.74 ± 3	2.746 ± 0.06
323.15 K, x1 = 0.3979	1275.76 ± 3.1	3.839 ± 0.084
323.15 K, x1 = 0.4982	1326.13 ± 3.2	5.184 ± 0.11
323.15 K, x1 = 0.5963	1369.11 ± 3.3	6.739 ± 0.15
323.15 K, x1 = 0.6992	1407.01 ± 3.4	8.895 ± 0.2
323.15 K, x1 = 0.7987	1439.6 ± 3.5	11.15 ± 0.25
323.15 K, x1 = 0.9	1468.41 ± 3.6	13.53 ± 0.3
323.15 K, x1 = 1	1493.28 ± 3.6	15.93 ± 0.35
328.15 K, x1 = 0.0991	1046.42 ± 2.6	1.049 ± 0.023
328.15 K, x1 = 0.1982	1136.32 ± 2.8	1.667 ± 0.036
328.15 K, x1 = 0.3024	1212.46 ± 3	2.528 ± 0.055
328.15 K, x1 = 0.3979	1270.58 ± 3.1	3.509 ± 0.077
328.15 K, x1 = 0.4982	1321.01 ± 3.2	4.704 ± 0.1
328.15 K, x1 = 0.5963	1364.03 ± 3.3	6.075 ± 0.13
328.15 K, x1 = 0.6992	1401.98 ± 3.4	7.875 ± 0.17
328.15 K, x1 = 0.7987	1434.59 ± 3.5	9.813 ± 0.22
328.15 K, x1 = 0.9	1463.42 ± 3.6	11.93 ± 0.26
328.15 K, x1 = 1	1488.31 ± 3.6	14.26 ± 0.31
